Values quoted from earlier work, collected in US9636305B2, “Antiemetic extended release solid dosage forms” (RedHill Biopharma Ltd., priority 2013, dated 2017).

Conditions: scale of Pliska et al., J. Chromatog. 216, 79, 1981

Row | hydropathy value | Structure (SMILES)
1 | −2.15 | N[C@@H](CC(=O)O)C(=O)O [aspartic acid]
2 | 0 | NCC(=O)O [glycine]
3 | 1.83 | CC[C@H](C)[C@H](N)C(=O)O [iso-leucine]
